Reference: patent US20240228459A1 (Boundless Bio, Inc., priority 2022, published 2024)

What was measured:
Wee1 = Wee1 (Homo sapiens, UniProt P30291); assay: Wee1 pCDK1 activity (known assay); format: cell-based
Protocol: (§1) The Wee1 pCDK1 and PLK1 activities were determined using known assays.

PLK1 = PLK1 (Homo sapiens, UniProt P53350); assay: PLK1 activity (known assay); format: biochemical
Protocol: as §1

Chain of Wee1 (P30291 whole entry, species assumed): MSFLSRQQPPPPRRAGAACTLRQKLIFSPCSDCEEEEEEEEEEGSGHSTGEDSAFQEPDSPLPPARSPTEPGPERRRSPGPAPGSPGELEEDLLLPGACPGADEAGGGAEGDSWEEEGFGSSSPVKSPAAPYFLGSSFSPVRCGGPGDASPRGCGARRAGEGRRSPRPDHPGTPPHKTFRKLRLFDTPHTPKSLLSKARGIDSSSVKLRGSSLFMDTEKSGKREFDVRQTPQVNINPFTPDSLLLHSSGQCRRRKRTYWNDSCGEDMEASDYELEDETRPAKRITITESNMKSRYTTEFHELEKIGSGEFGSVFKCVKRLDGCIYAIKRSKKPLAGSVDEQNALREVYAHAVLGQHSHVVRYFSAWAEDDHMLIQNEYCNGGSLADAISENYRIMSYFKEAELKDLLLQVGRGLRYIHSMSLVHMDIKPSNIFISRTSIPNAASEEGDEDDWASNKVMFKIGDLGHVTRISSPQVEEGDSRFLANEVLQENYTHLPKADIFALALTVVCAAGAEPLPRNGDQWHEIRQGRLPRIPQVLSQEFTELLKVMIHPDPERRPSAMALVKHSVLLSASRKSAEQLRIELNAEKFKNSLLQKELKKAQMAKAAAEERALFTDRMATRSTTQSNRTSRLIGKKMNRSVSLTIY
Chain of PLK1 (P53350 whole entry, species assumed): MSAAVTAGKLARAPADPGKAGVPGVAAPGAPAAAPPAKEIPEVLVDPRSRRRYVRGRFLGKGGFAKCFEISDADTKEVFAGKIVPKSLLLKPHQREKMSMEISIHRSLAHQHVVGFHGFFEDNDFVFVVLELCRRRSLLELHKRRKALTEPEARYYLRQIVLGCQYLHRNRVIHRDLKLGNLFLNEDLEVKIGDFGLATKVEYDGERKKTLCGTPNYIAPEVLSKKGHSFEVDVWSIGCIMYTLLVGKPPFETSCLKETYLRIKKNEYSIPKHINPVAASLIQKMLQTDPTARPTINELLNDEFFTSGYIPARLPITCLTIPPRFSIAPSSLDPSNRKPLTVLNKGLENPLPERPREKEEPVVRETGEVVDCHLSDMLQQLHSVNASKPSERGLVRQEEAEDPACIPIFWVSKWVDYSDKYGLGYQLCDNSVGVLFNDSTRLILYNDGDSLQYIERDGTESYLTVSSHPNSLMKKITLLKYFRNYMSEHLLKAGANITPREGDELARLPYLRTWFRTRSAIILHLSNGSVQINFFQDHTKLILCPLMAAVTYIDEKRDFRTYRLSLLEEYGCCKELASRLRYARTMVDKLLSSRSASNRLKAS

IC50 (Wee1) [nM] | IC50 (PLK1) [nM] | Compound
500 to 1000 | 250 to 500 | CN1CCN(c2ccc(Nc3ncc(C#N)c(Nc4cccc(N5CCCC5=O)n4)n3)cc2)CC1=O [Example 71, 2-[4-(4-methyl-3-oxo-piperazin-1-yl)anilino]-4-[[6-(2-oxopyrrolidin-1-yl)-2-pyridyl]amino]pyrimidine-5-carbonitrile]
≤ 100 | > 1000 | CN1CCc2cc(Nc3ncc(C#N)c(Nc4cccc(N5CCCC5=O)n4)n3)ccc2C1 [Example 72, 2-[(2-methyl-3,4-dihydro-1H-isoquinolin-6-yl)amino]-4-[[6-(2-oxopyrrolidin-1-yl)-2-pyridyl]amino]pyrimidine-5-carbonitrile]
≤ 100 | > 1000 | Cc1cc(Nc2ncc(C#N)c(Nc3cccc(N4CCCC4=O)n3)n2)cc2c1CN(C)CC2 [Example 73, 2-[(2,8-dimethyl-3,4-dihydro-1H-isoquinolin-6-yl)amino]-4-[[6-(2-oxopyrrolidin-1-yl)-2-pyridyl]amino]pyrimidine-5-carbonitrile]
100 to 250 | > 1000 | CN1CCc2ccc(Nc3ncc(C#N)c(Nc4cccc(N5CCCC5=O)n4)n3)cc2C1 [Example 74, 2-[(2-methyl-3,4-dihydro-1H-isoquinolin-7-yl)amino]-4-[[6-(2-oxopyrrolidin-1-yl)-2-pyridyl]amino]pyrimidine-5-carbonitrile]
≤ 100 | 100 to 250 | Cc1cc(Nc2ncc(C#N)c(Nc3cccc(N4CCCC4=O)n3)n2)cc2c1CCN(C)C2 [Example 75, 2-[(2,5-dimethyl-3,4-dihydro-1H-isoquinolin-7-yl)amino]-4-[[6-(2-oxopyrrolidin-1-yl)-2-pyridyl]amino]pyrimidine-5-carbonitrile]
500 to 1000 | > 1000 | CN1CCc2cc(Nc3ncc(C#N)c(Nc4cccc(N5CCCC5=O)n4)n3)cc(Cl)c2C1 [Example 76, 2-[(8-chloro-2-methyl-3,4-dihydro-1H-isoquinolin-6-yl)amino]-4-[[6-(2-oxopyrrolidin-1-yl)-2-pyridyl]amino]pyrimidine-5-carbonitrile]
> 1000 | > 1000 | CN1CCC(O)(c2ccc(Nc3ncc(C#N)c(Nc4cccc(N5CCCC5=O)n4)n3)cc2)CC1 [Example 78, 2-[4-(4-hydroxy-1-methyl-4-piperidyl)anilino]-4-[[6-(2-oxopyrrolidin-1-yl)-2-pyridyl]amino]pyrimidine-5-carbonitrile]

The next lines start with the compound.

Compound | IC50 (Wee1) [nM] | IC50 (PLK1) [nM]
CN1CC2CCC(C1)N2c1ccc(Nc2ncc(C#N)c(Nc3ccc4c(n3)C(C)(O)CC4)n2)cc1 (stereo not drawn) [Example 57, 4-[(7-hydroxy-7-methyl-5,6-dihydrocyclopenta[b]pyridin-2-yl)amino]-2-[4-(3-methyl-3,8-diazabicyclo[3.2.1]octan-8-yl)anilino]pyrimidine-5-carbonitrile] | 250 to 500 | > 1000
CN1CCc2cc(Nc3ncc(C#N)c(Nc4ccc5c(n4)C(C)(O)CC5)n3)ccc2C1(C)C (stereo not drawn) [Example 61, 4-[(7-hydroxy-7-methyl-5,6-dihydrocyclopenta[b]pyridin-2-yl)amino]-2-[(1,1,2-trimethyl-3,4-dihydroisoquinolin-6-yl)amino]pyrimidine-5-carbonitrile] | 250 to 500 | > 1000
Cc1cc(Nc2ncc(C#N)c(Nc3cccc(N4CCCC4=O)n3)n2)ccc1C1CCN(C)CC1 [Example 62, 2-[3-methyl-4-(1-methyl-4-piperidyl)anilino]-4-[[6-(2-oxopyrrolidin-1-yl)-2-pyridyl]amino]pyrimidine-5-carbonitrile] | ≤ 100 | 250 to 500
COCc1cc(Nc2ncc(C#N)c(Nc3cccc(N4CCCC4=O)n3)n2)ccc1C1CCN(C)CC1 [Example 63, 2-[3-(methoxymethyl)-4-(1-methyl-4-piperidyl)anilino]-4-[[6-(2-oxopyrrolidin-1-yl)-2-pyridyl]amino]pyrimidine-5-carbonitrile] | 500 to 1000 | > 1000
C[C@@H]1CN(C)CCN1c1ccc(Nc2ncc(C#N)c(Nc3cccc(N4CCCC4=O)n3)n2)cc1 [Example 64, 4-[[6-(2-oxopyrrolidin-1-yl)-2-pyridyl]amino]-2-[4-[(2R)-2,4-dimethylpiperazin-1-yl]anilino]pyrimidine-5-carbonitrile] | 250 to 500 | > 1000
C[C@H]1CN(C)CCN1c1ccc(Nc2ncc(C#N)c(Nc3cccc(N4CCCC4=O)n3)n2)cc1 [Example 65, 4-[[6-(2-oxopyrrolidin-1-yl)-2-pyridyl]amino]-2-[4-[(2S)-2,4-dimethylpiperazin-1-yl]anilino]pyrimidine-5-carbonitrile] | 100 to 250 | > 1000
COCc1cc(Nc2ncc(C#N)c(Nc3cccc(N4CCCC4=O)n3)n2)ccc1N1CCN(C)CC1 [Example 66, 2-[3-(methoxymethyl)-4-(4-methylpiperazin-1-yl)anilino]-4-[[6-(2-oxopyrrolidin-1-yl)-2-pyridyl]amino]pyrimidine-5-carbonitrile] | 250 to 500 | > 1000
CN1CCC(c2ccc(Nc3ncc(C#N)c(Nc4cccc(N5CCCC5=O)n4)n3)cc2)CC1=O (stereo not drawn) [Example 67, 2-[4-(1-methyl-2-oxo-4-piperidyl)anilino]-4-[[6-(2-oxopyrrolidin-1-yl)-2-pyridyl]amino]pyrimidine-5-carbonitrile] | 500 to 1000 | > 1000
CCC1CN(C)CCN1c1ccc(Nc2ncc(C#N)c(Nc3cccc(N4CCCC4=O)n3)n2)cc1 (stereo not drawn) [Example 68, 2-[4-(2-ethyl-4-methyl-piperazin-1-yl)anilino]-4-[[6-(2-oxopyrrolidin-1-yl)-2-pyridyl]amino]pyrimidine-5-carbonitrile] | 100 to 250 | > 1000
COCC1CN(C)CCN1c1ccc(Nc2ncc(C#N)c(Nc3cccc(N4CCCC4=O)n3)n2)cc1 (stereo not drawn) [Example 69, 2-[4-[2-(methoxymethyl)-4-methyl-piperazin-1-yl]anilino]-4-[[6-(2-oxopyrrolidin-1-yl)-2-pyridyl]amino]pyrimidine-5-carbonitrile] | 250 to 500 | > 1000
CN1CC2CC1CN2c1ccc(Nc2ncc(C#N)c(Nc3cccc(N4CCCC4=O)n3)n2)cc1 (stereo not drawn) [Example 70, 2-[4-(5-methyl-2,5-diazabicyclo[2.2.1]heptan-2-yl)anilino]-4-[[6-(2-oxopyrrolidin-1-yl)-2-pyridyl]amino]pyrimidine-5-carbonitrile] | 250 to 500 | ≤ 100
